Where a name gives a salt, the structure may show the parent alone.
Legend:
IDO in A431 cells = molecular target: T1, IDO in A431 cells (Homo sapiens, UniProt P14902); test: IDO cell-based assay, kynurenine production in IFN-γ stimulated A431 cells; settings: A-431, 24 h; final concentration of the compound 10 μM; rate relative to culture without compound
T1 construct: endogenous in cells; host or cells: A431 cells, IFN-γ stimulated
Procedure, shortened: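 Kynurenine output was read by absorbance at 460 nm after p-dimethylbenzaldehyde/trichloroacetic acid reagent, background-corrected, and given as % of untreated wells. Before the read, cells in 178 μM L-tryptophan medium had 1 h compound preincubation, then 24 h IFN-γ stimulation (added as 100 ng/mL dilution).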

[1] = molecular target: rhTDO (recombinant human TDO) (Homo sapiens, UniProt P48775); test: Enzyme assay using rhTDO (rate of kynurenine production); type: biochemical; settings: 2 h, read-out: rhTDO-mediated kynurenine production; for remaining activity at 10 µM: final concentration of the compound 10 μM, rate relative to reaction without compound
rhTDO (recombinant human TDO), sequence (P48775 whole entry): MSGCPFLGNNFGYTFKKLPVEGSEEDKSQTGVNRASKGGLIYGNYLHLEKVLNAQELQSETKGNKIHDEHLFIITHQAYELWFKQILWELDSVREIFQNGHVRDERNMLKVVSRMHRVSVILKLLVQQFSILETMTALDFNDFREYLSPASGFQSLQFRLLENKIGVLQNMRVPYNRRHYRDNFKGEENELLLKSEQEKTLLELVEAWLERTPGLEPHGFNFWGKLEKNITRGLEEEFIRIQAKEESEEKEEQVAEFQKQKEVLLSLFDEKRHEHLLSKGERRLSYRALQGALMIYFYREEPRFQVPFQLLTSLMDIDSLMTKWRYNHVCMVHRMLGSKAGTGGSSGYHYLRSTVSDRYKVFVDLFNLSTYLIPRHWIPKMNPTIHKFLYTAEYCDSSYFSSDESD
Procedure, shortened: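 Kynurenine output, as percent of untreated control after background subtraction, read at 490 nm with p-dimethylbenzaldehyde following TCA quench and 15 min heating at 50 °C. Reaction: rhTDO with compound, 10 min preincubation then 120 min at 37 °C, started by 20 mM tryptophan stock, in phosphate/ascorbate/methylene blue/catalase.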

TDO in A172 cells = molecular target: T2, TDO in A172 cells (Homo sapiens, UniProt P48775); test: TDO cell-based assay, kynurenine production in A172 cells; settings: A 172; final concentration of the compound 10 μM; rate relative to culture without compound
T2 construct: endogenous in cells; host or cells: A172 cells
T2 sequence (P48775 whole entry): as above
Procedure, shortened: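 A172 cells were preincubated with compound for 1 h, then given L-tryptophan (final 524 μM) for 24 h at 37 °C. Kynurenine was read at 460 nm after p-dimethylbenzaldehyde/TCA reagent, background-subtracted, and expressed as % of no-compound production.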

[2] = molecular target: rhIDO (recombinant human IDO) (Homo sapiens, UniProt P14902); test: Enzyme assay using rhIDO (rate of kynurenine production); type: biochemical; settings: 2 h; final concentration of the compound 10 μM; rate relative to reaction without compound; read-out: rhIDO-mediated kynurenine production
rhIDO (recombinant human IDO), sequence (P14902 whole entry): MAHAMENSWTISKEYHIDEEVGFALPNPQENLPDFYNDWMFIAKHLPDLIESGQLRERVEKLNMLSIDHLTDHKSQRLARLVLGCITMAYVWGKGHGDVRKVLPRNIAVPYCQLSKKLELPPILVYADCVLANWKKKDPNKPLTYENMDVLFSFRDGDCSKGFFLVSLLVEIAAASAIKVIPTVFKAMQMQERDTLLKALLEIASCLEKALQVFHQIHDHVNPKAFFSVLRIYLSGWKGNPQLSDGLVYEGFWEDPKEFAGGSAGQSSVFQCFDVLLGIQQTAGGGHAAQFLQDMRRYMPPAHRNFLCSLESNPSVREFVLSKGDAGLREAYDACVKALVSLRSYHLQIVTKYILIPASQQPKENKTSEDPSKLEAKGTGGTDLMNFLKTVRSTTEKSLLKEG
Procedure, shortened: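 Kynurenine formation, expressed as % of uncompounded reaction after background subtraction, was read by absorbance at 490 nm following TCA stop, 50 °C hydrolysis and Ehrlich-type p-dimethylbenzaldehyde staining. Recombinant human IDO with ascorbate/methylene blue/catalase was pre-exposed to compound 10 min, then reacted 120 min at 37 °C after adding 2 mM tryptophan stock.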

T1 sequence (P14902 whole entry): as above

| SMILES | remaining activity at 10 µM (IDO in A431 cells) [%] | remaining activity at 10 µM [1] [%] | remaining activity at 10 µM (TDO in A172 cells) [%] | remaining activity at 10 µM [2] [%] | remaining activity at 3 µM ([1]; final concentration of the compound 3 μM (data with *)) [%] |
| --- | --- | --- | --- | --- | --- |
| Clc1ccccc1CCN1CN=C(SCc2ccc(Br)cc2CSC2=NCN(CCc3ccccc3Cl)CN2)NC1 [Compound 53, 6,6′-(((4-Bromo-1,2-phenylene)bis(methylene))bis(sulfanediyl))bis(3-(2-chlorophenethyl)-1,2,3,4-tetrahydro-1,3,5-triazine)] | 5 | 19 | 17 | 16 |  |
| Clc1ccc(CN2CN=C(SCc3ccc(Br)cc3CSC3=NCN(Cc4ccc(Cl)c(Cl)c4)CN3)NC2)cc1Cl [Compound 54, 6,6′-(((4-Bromo-1,2-phenylene)bis(methylene))bis(sulfanediyl))bis(3-(3,4-dichlorobenzyl)-1,2,3,4-tetrahydro-1,3,5-triazine)] | 4 | 14 | 6 | 13 |  |
| COC(=O)c1ccccc1CSC(=N)N [Compound 55, Methyl 2-((carbamimidoylthio)methyl)benzoate hydrochloride] | 73 | 111 | 121 | 91 |  |
| Clc1ccc(CN2CN=C(SCc3cc(Cl)c(Cl)cc3CSC3=NCN(Cc4ccc(Cl)c(Cl)c4)CN3)NC2)cc1Cl [Compound 56, 6,6′-(((4,5-Dichloro-1,2-phenylene)bis(methylene))bis(sulfanediyl))bis(3-(3,4-dichlorobenzyl)-1,2,3,4-tetrahydro-1,3,5-triazine)] | 4 | 35 | 2 | 41 |  |
| Brc1ccc(CS/C(=N/C2CCCCC2)NC2CCCCC2)c(CS/C(=N/C2CCCCC2)NC2CCCCC2)c1 [Compound 57, (4-Bromo-1,2-phenylene)bis(methylene) (E,E)-bis(N,N′-dicyclohexylcarbamimidothioate) dihydrobromide] | 3 | 80 | 12 | 83 |  |
| c1ccc(CS/C(=N/C2CCCCC2)NC2CCCCC2)c(CS/C(=N/C2CCCCC2)NC2CCCCC2)c1 [Compound 58, 1,2-Phenylenebis(methylene) (E,E)-bis(N,N′-dicyclohexylcarbamimidothioate) dihydrobromide] | 1 | 83 | 9 | 73 |  |
| NC(=O)SCc1ccccc1CS/C(N)=N/c1ccc(F)c(Cl)c1 [Compound 59, (E)-S-(2-(((N′-(3-Chloro-4-fluorophenyl)carbamimidoyl)thio)methyl)benzyl) carbamothioate hydrobromide] | 1 | 1 | 4 | -3 |  |
| Brc1ccc(CSC2=NCN(CCC3CCCCC3)CN2)c(CSC2=NCN(CCC3CCCCC3)CN2)c1 [Compound 60, 6,6′-(((4-Bromo-1,2-phenylene)bis(methylene))bis(sulfanediyl))bis(3-(2-cyclohexylethyl)-1,2,3,4-tetrahydro-1,3,5-triazine)] | 1 | 6 | 4 | 6 |  |
| Clc1cc(CSC2=NCN(CCC3CCCCC3)CN2)c(CSC2=NCN(CCC3CCCCC3)CN2)cc1Cl [Compound 61, 6,6′-(((4,5-Dichloro-1,2-phenylene)bis(methylene))bis(sulfanediyl))bis(3-(2-cyclohexylethyl)-1,2,3,4-tetrahydro-1,3,5-triazine)] | 1 | 4 | -11 | 7 |  |
| CNC(=O)Cc1ccccc1CSC(=N)N [Compound 62, 2-(2-(Methylamino)-2-oxoethyl)benzyl carbamimidothioate hydrobromide] | 86 | 21 | 56 | 58 |  |
| N/C(=N\c1ccc(F)cc1F)SCc1cc(Cl)c(Cl)cc1CS/C(N)=N/c1ccc(F)cc1F [Compound 63, (4,5-Dichloro-1,2-phenylene)bis(methylene) (E,E)-bis(N′-(2,4-difluorophenyl)carbamimidothioate) dihydrobromide] | 2 |  | 5 | 0 | 16 |
| N=C(N)SCc1ccccc1CC(=O)NCCc1ccccc1 [Compound 64, 2-(2-Oxo-2-(phenethylamino)ethyl)benzyl carbamimidothioate hydrobromide] | 102 | 42 | 76 | 81 |  |
| N=C(N)SCc1ccccc1CC(=O)NCC1CCCCC1 [Compound 65, 2-(2-((Cyclohexylmethyl)amino)-2-oxoethyl)benzyl carbamimidothioate hydrobromide] | 104 | 76 | 94 | 89 |  |
| N=C(N)SCc1ccccc1CC(=O)NCCc1ccccc1Cl [Compound 66, 2-(2-((2-chlorophenethyl)amino)-2-oxoethyl)benzyl carbamimidothioate hydrobromide] | 101 | 49 | 74 | 80 |  |
| N#Cc1ccc(CNC(=O)Cc2ccccc2CSC(=N)N)cc1 [Compound 67, 2-(2-((4-Cyanobenzyl)amino)-2-oxoethyl)benzyl carbamimidothioate hydrobromide] | 36 | 46 | 64 | 39 |  |
| N=C(N)SCc1ccccc1CC(=O)NCCc1ccc(Cl)cc1 [Compound 68, 2-(2-((4-Chlorophenethyl)amino)-2-oxoethyl)benzyl carbamimidothioate hydrobromide] | 101 | 31 | 81 | 82 |  |
| N=C(N)SCc1ccccc1CC(=O)NCCC1CCCCC1 [Compound 69, 2-(2-((2-Cyclohexylethyl)amino)-2-oxoethyl)benzyl carbamimidothioate hydrobromide] | 101 | 60 | 73 | 76 |  |
| N=C(N)SCc1ccccc1CC(=O)NCCc1ccc(Cl)c(Cl)c1 [Compound 70, 2-(2-((3,4-Dichlorophenethyl)amino)-2-oxoethyl)benzyl carbamimidothioate hydrobromide] | 98 | 35 | 96 | 72 |  |
| N=C(N)SCc1ccccc1CC(=O)NCC1CC1 [Compound 71, 2-(2-((Cyclopropylmethyl)amino)-2-oxoethyl)benzyl carbamimidothioate hydrobromide] | 96 | 67 | 77 | 87 |  |
| N=C(N)SCc1ccccc1CC(=O)NCCCCc1ccccc1 [Compound 72, 2-(2-Oxo-2-((4-phenylbutyl)amino)ethyl)benzyl carbamimidothioate hydrobromide] | 69 | 47 | 68 | 70 |  |

Reference: patent US12209079B2 (GENERAL INCORPORATED ASSOCIATION PHARMA VALLEY PROJECT …, priority 2017, dated 2025)
